Laboratory results as given in US7365231B2, “Compound with antitumor activity and preparation method therefor” (National Taiwan University of Science & Technology, priority 2005, dated 2008).

How the values were obtained:
Type in all cases: cell-based
A549/ATCC = experiment: NCI panel growth inhibition, sulforhodamine B; conditions: Homo sapiens, NSCLC, drug for last 48 h of 72 h
Source text: (§1) Comparison of anticancer activities of the 1,3-substituted adamantane derivatives, 1,3-bis(4-aminophenyl)adamantane (1,3-DPANH2), 1,3-bis(4-(4-aminophenoxy)phenyl)adamantane (1,3-DPAONH2), 1,3-bis(4-(4-amino-3-hydroxy)phenyl)adamantane (1,3-DPA/OH/NH2) and 1,3-bis(4-(4-amino-2-trifluoromethylphenoxy)phenyl)adamantane (1,3-DPA/CF3/NH2) as shown in FIG. 1 were synthesized in the present invention. Those compounds were submitted to the National Cancer Institute for anticancer assay in culture against a standard panel of cell lines. […] To further confirm that the different substituents (CF3 and OH) on the phenyl ring of 1,3-DPAONH2 affect the growth inhibition of cancer cells. […] The transformations of 1,3-DPAONH2 to 1,3-DPA/OH/NH2 led to a remarked enhancement of anticancer activity toward all the tested cancer lines. The role of the OH group at the ortho position of the NH2 on growth inhibition is remarkable. In addition, one compound (1,3-DPA/OH/NH2) was confirmed to have an IC50 of <1 μM against one of the cells (BT-549 breast carcinoma). Comparison of anticancer activities of 1,3-substituted diaminophenyladamantane derivatives, the following order of potency against the tested cancer lines was observed: 1,3-DPA/OH/NH2>1,3-DPAONH2>1,3-DPANH2>1,3-DPA/CF3/NH2.

ACHN = experiment: NCI panel growth inhibition, sulforhodamine B; conditions: Homo sapiens, Renal cancer, drug for last 48 h of 72 h
Source text: as §1

CAKI-1 = experiment: NCI panel growth inhibition, sulforhodamine B; conditions: Homo sapiens; CAKI-1, Renal cancer; drug for last 48 h of 72 h
Source text: as §1

COLO 205 = experiment: NCI panel growth inhibition, sulforhodamine B; conditions: Homo sapiens; COLO 205, Colon cancer; drug for last 48 h of 72 h
Source text: as §1

HCT-15 = experiment: NCI panel growth inhibition, sulforhodamine B; conditions: Homo sapiens; HCT-15, Colon cancer; drug for last 48 h of 72 h
Source text: as §1

IGROV1 = experiment: NCI panel growth inhibition, sulforhodamine B; conditions: Homo sapiens, IGROV-1; IGROV1, Ovarian cancer; drug for last 48 h of 72 h
Source text: as §1

LOX IMVI = experiment: NCI panel growth inhibition, sulforhodamine B; conditions: Homo sapiens, Melanoma, drug for last 48 h of 72 h
Source text: as §1

M14 = experiment: NCI panel growth inhibition, sulforhodamine B; conditions: Homo sapiens; M14, Melanoma; drug for last 48 h of 72 h
Source text: as §1

MCF-7 = experiment: NCI panel growth inhibition, sulforhodamine B; conditions: Homo sapiens, MCF7; MCF-7, Breast cancer; drug for last 48 h of 72 h
Source text: as §1

MDA-N = experiment: NCI panel growth inhibition, sulforhodamine B; conditions: Homo sapiens, Breast cancer, drug for last 48 h of 72 h
Source text: as §1

MOLT-4 = experiment: NCI panel growth inhibition, sulforhodamine B; conditions: Homo sapiens; MOLT-4, Leukemia; drug for last 48 h of 72 h
Source text: as §1

RPMI-8226 = experiment: NCI panel growth inhibition, sulforhodamine B; conditions: Homo sapiens; RPMI-8226, Leukemia; drug for last 48 h of 72 h
Source text: as §1

SF-268 = experiment: NCI panel growth inhibition, sulforhodamine B; conditions: Homo sapiens; SF-268, CNS cancer; drug for last 48 h of 72 h
Source text: as §1

SK-MEL-28 = experiment: NCI panel growth inhibition, sulforhodamine B; conditions: Homo sapiens; SK-MEL-28, Melanoma; drug for last 48 h of 72 h
Source text: as §1

SK-MEL-5 = experiment: NCI panel growth inhibition, sulforhodamine B; conditions: Homo sapiens; SK-MEL-5, Melanoma; drug for last 48 h of 72 h
Source text: as §1

SN12C = experiment: NCI panel growth inhibition, sulforhodamine B; conditions: Homo sapiens, Renal cancer, drug for last 48 h of 72 h
Source text: as §1

TK-10 = experiment: NCI panel growth inhibition, sulforhodamine B; conditions: Homo sapiens; TK-10, Renal cancer; drug for last 48 h of 72 h
Source text: as §1

UACC-62 = experiment: NCI panel growth inhibition, sulforhodamine B; conditions: Homo sapiens; UACC-62, Melanoma; drug for last 48 h of 72 h
Source text: as §1

HS 578T = experiment: NCI panel growth inhibition, sulforhodamine B; conditions: Homo sapiens, Breast cancer, drug for last 48 h of 72 h
Source text: as §1

MALME-3M = experiment: NCI panel growth inhibition, sulforhodamine B; conditions: Homo sapiens, Melanoma, drug for last 48 h of 72 h
Source text: as §1

NCI-H322M = experiment: NCI panel growth inhibition, sulforhodamine B; conditions: Homo sapiens, NSCLC, drug for last 48 h of 72 h
Source text: as §1

RXF-393 = experiment: NCI panel growth inhibition, sulforhodamine B; conditions: Homo sapiens; RXF-393, Renal cancer; drug for last 48 h of 72 h
Source text: as §1

T-47D = experiment: NCI panel growth inhibition, sulforhodamine B; conditions: Homo sapiens, T47D, Breast cancer, drug for last 48 h of 72 h
Source text: as §1

[1] = system: NCI's human cancer cell lines; experiment: NCI panel growth inhibition, whole panel summary; conditions: in vitro
Source text: as §1, with “1,3-DPA/OH/NH2>1,3-DPAONH2>1,3-DPANH2>1,3-DPA/CF3/NH2. […]” for “1,3-DPA/OH/NH2>1,3-DPAONH2>1,3-DPANH2>1,3-DPA/CF3/NH2.”

HT29 = experiment: NCI panel growth inhibition, sulforhodamine B; conditions: Homo sapiens, HT-29; HT29, Colon cancer; drug for last 48 h of 72 h
Source text: as §1

Structure (SMILES) | IC50 (A549/ATCC) | IC50 (ACHN) | IC50 (CAKI-1) | IC50 (COLO 205) | IC50 (HCT-15) | IC50 (IGROV1) | IC50 (LOX IMVI) | IC50 (M14) | IC50 (MCF-7) | IC50 (MDA-N) | IC50 (MOLT-4) | IC50 (RPMI-8226) | IC50 (SF-268) | IC50 (SK-MEL-28) | IC50 (SK-MEL-5) | IC50 (SN12C) | IC50 (TK-10) | IC50 (UACC-62) | IC50 (HS 578T) | IC50 (MALME-3M) | further results
Nc1ccc(C23CC4CC(C2)CC(c2ccc(N)cc2)(C4)C3)cc1 [1,3-DPANH2, 1,3-bis(4-aminophenyl)adamantane] | > 100 µM | 41.1 µM | > 100 µM | 2.3 µM | 14.5 µM | > 100 µM | > 100 µM | 37.1 µM | 31.9 µM | 37.7 µM | 11.3 µM | 10.7 µM | 45.2 µM | 15 µM | 13.1 µM | 25.1 µM | > 100 µM | 29 µM | – | – | –
Nc1ccc(Oc2ccc(C34CC5CC(C3)CC(c3ccc(Oc6ccc(N)c(O)c6)cc3)(C5)C4)cc2)cc1O [1,3-DPA/OH/NH2, 1,3-bis-(4-(4-amino-3-hydroxyphenoxy)phenyl)adamantane] | 1.52 µM | 1.61 µM | 1.82 µM | 1.84 µM | 1.76 µM | 1.38 µM | 1.64 µM | 1.59 µM | 1.85 µM | 1.58 µM | 2.42 µM | 2.54 µM | 1.16 µM | 2.74 µM | 1.88 µM | 1.74 µM | 5.57 µM | 2.65 µM | 1.63 µM | 1.93 µM | IC50 (NCI-H322M): 1.26 µM; IC50 (RXF-393): 1.61 µM; IC50 (T-47D): 1.66 µM; growth inhibitory activity against the tested cancer cell lines (in words) [1]: strong growth inhibitory activities
Nc1ccc(Oc2ccc(C34CC5CC(C3)CC(c3ccc(Oc6ccc(N)cc6C(F)(F)F)cc3)(C5)C4)cc2)c(C(F)(F)F)c1 [1,3-DPA/CF3/NH2, 1,3-bis-(4-(4-amino-2-trifluoromethylphenoxy)phenyl)adamantane] | 19 µM | 32.9 µM | 28.1 µM | 19.1 µM | 31.8 µM | 19.5 µM | 17.9 µM | 16.9 µM | 13.4 µM | 36.7 µM | 35.7 µM | – | 17.4 µM | 43.2 µM | 22 µM | 31.1 µM | 16.1 µM | 22.1 µM | 17.1 µM | 22.2 µM | IC50 (HT29): 17.2 µM; IC50 (NCI-H322M): 20.1 µM; IC50 (RXF-393): 11.1 µM; IC50 (T-47D): 15.1 µM
Nc1ccc(C2(c3ccc(N)cc3)C3CC4CC(C3)CC2C4)cc1 [2,2-DPANH2, 2,2-bis(4-aminophenyl)adamantane] | – | 18.6 µM | 15 µM | – | 21.9 µM | 9.6 µM | 16.2 µM | 14.9 µM | 19.4 µM | 18.6 µM | 4.96 µM | – | 1.57 µM | 14.9 µM | – | 18.6 µM | 18 µM | 16.3 µM | – | – | IC50 (HT29): 0.1 µM; IC50 (RXF-393): 2.74 µM; IC50 (T-47D): 14.4 µM
Nc1ccc(Oc2ccc(C3(c4ccc(Oc5ccc(N)cc5)cc4)C4CC5CC(C4)CC3C5)cc2)cc1 [2,2-DPAONH2, 2,2-bis(4-(4-aminophenoxy)phenyl)adamantane] | 3.38 µM | 13.4 µM | 11.1 µM | 2.71 µM | 4.94 µM | 5.88 µM | 2.75 µM | 2.28 µM | 3.81 µM | 2.74 µM | 4.27 µM | 3.01 µM | 6.44 µM | 10.5 µM | 8.38 µM | 3.65 µM | 14.3 µM | 17.7 µM | 4.91 µM | 13.6 µM | IC50 (HT29): 2.96 µM; IC50 (NCI-H322M): 0.184 µM
Nc1ccc(Oc2ccc(C34CC5CC(C3)CC(c3ccc(Oc6ccc(N)cc6)cc3)(C5)C4)cc2)cc1 [1,3-DPAONH2, 1,3-bis(4-(4-aminophenoxy)phenyl)adamantane] | 10.3 µM | 11.7 µM | 12.1 µM | 13.3 µM | 4.99 µM | 2.64 µM | 2.44 µM | 9.62 µM | 2.89 µM | 4.33 µM | 3.81 µM | 4.14 µM | 5.6 µM | 18.8 µM | 13.8 µM | 5.76 µM | 24.9 µM | 9.64 µM | 11.7 µM | 14.6 µM | IC50 (HT29): 7.12 µM; IC50 (NCI-H322M): 8.84 µM; IC50 (RXF-393): 7.78 µM; IC50 (T-47D): 5.67 µM
